Key:
CcbF = biological target: T1, CcbF (Streptomyces caelestis, UniProt E9JES7); assay: X-ray crystal structure, […] Å; format: binding; details: covalent; internal aldimine with Lys260
T1 construct: full-length gene in pET42b (NdeI/XhoI), C-terminal His8 tag, expressed in E. coli BLR(DE3)/pGro7; catalytic Lys260; printed ccbF forward primer is identical to the lmbF one (likely misprint)

LmbF = biological target: T2, LmbF (Streptomyces lincolnensis, UniProt A9Y8R7); assay: X-ray crystal structure, […] Å; format: binding; details: covalent; internal aldimine with Lys270
T2 construct: full-length gene in pET42b (NdeI/XhoI), C-terminal His8 tag, expressed in E. coli BLR(DE3)/pGro7; active site at dimer interface; catalytic Lys270
T2 sequence (A9Y8R7 entry or part of it): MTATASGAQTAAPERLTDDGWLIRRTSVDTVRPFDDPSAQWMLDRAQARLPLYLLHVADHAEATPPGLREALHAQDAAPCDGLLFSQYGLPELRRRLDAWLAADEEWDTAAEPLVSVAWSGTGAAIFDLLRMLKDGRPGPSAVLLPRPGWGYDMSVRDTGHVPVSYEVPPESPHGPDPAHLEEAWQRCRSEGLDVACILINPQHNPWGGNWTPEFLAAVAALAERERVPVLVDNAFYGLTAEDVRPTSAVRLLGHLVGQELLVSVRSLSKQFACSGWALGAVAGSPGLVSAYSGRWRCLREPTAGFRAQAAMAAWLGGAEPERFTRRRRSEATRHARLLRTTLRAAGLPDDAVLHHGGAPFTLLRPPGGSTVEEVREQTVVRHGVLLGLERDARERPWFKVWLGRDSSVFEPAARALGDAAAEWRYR

T1 sequence (E9JES7 entry or part of it): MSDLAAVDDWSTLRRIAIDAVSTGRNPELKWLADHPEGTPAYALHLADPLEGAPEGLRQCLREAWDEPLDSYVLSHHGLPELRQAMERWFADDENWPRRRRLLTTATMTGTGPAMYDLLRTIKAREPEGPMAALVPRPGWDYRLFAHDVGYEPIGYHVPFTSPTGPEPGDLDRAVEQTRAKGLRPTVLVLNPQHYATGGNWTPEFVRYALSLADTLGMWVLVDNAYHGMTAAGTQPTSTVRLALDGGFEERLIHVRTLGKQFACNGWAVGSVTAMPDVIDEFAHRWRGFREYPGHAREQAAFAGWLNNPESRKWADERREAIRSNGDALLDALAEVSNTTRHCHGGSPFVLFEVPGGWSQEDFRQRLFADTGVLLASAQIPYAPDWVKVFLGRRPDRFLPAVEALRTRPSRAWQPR

Q: For `Cc1ncc(COP(=O)(O)O)c(C=O)c1O` [PLP], which “X-ray crystal structure, 1.8 Å” value (CcbF) is on record?
A: we solved the X-ray crystal structures of LmbF and CcbF with PLP

Q: And the “X-ray crystal structure, 1.7 Å” value (LmbF)?
A: we solved the X-ray crystal structures of LmbF and CcbF with PLP
